As a reminder, the IC50 is the concentration that inhibits the measured activity by half.

27 compounds from patent US20150157739A1, “Imidazo[2,1]thiazol-3-one derivatives” (Hoffmann-La Roche Inc., priority 2012, published 2015) can be followed below.

The structures appear in SMILES notation.

Test [1] deals with T1, aggregated recombinant human-microtubule associated protein Tau (Homo sapiens, UniProt P10636).
T1 construct: Recombinant human-microtubule associated protein Tau purified from E. coli is aggregated at a concentration of 5 μM with Arachidonic Acid (100 μM) in Tris 10 mM pH8, 24 h at 37° C
The test can be described thus: Thiazin-red R displacement fluorescence assay on aggregated Tau. The test is classed as binding. Particulars: displacement of Thiazin-red R from aggregated Tau; compound 0.3 nM to 10000 nM; 30 min room temperature; Ex 531 nm/Em 595 nm.

In test [2] the target is T2, aggregated synthetic Aβ40 (Homo sapiens, UniProt P05067).
T2 construct: Synthetic Aβ40 is aggregated at a concentration of 50 μM
The test can be described thus: Thiazin-red R displacement fluorescence assay on aggregated A-beta. Format: binding. The conditions noted are these: displacement of Thiazin-red R from aggregated Aβ40; compound 0.3 nM to 10000 nM; 30 min room temperature; Ex 531 nm/Em 595 nm.

T2 sequence (P05067 672-711 limits assumed): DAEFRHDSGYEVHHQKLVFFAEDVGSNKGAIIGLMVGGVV
T1 sequence (P10636 whole entry): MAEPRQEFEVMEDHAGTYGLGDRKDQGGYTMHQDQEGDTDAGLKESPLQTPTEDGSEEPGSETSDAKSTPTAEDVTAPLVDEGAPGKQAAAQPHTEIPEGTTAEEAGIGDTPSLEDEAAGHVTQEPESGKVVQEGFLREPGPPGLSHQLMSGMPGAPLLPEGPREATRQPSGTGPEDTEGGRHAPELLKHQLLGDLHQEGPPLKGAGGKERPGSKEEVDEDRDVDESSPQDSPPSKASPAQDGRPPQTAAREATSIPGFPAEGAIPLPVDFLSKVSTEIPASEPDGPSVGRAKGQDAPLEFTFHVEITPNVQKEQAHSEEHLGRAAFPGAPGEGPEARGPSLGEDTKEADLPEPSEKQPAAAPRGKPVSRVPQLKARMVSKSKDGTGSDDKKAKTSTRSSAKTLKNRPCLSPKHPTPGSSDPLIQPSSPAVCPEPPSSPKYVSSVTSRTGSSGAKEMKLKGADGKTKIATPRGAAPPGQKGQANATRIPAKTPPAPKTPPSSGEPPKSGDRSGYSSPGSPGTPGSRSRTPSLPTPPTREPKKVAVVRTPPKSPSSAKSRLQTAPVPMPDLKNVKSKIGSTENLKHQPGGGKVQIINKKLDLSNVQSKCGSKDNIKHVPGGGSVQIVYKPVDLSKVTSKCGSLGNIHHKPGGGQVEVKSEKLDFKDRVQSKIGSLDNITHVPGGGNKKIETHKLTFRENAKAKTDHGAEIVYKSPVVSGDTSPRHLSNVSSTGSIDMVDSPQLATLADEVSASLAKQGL

Turning to `COc1cc(/C=c2\sc3nc(-c4cccnc4)cn3c2=O)cc(Br)c1O` [Example 72, 2-[1-(3-Bromo-4-hydroxy-5-methoxy-phenyl)-meth-(Z)-ylidene]-6-(pyridin-3-yl)-imidazo[2,1-b]thiazol-3-one], the IC50 in test [1] came out at 3 nM; in test [2], 229 nM.
The like results for `COc1cc(/C=c2\sc3nc(-c4cccc(OCCF)c4)cn3c2=O)cc(Cl)c1O` [Example 74, 2-[1-(3-Chloro-4-hydroxy-5-methoxy-phenyl)-meth-(Z)-ylidene]-6-(3-(2-fluoroethoxyl)phenyl)-imidazo[2,1-b]thiazol-3-one] were, in that order, 5 nM and 55 nM.
On to `COc1cc(/C=c2\sc3nc(-c4ccnc(C)c4)cn3c2=O)cc(Cl)c1O` [Example 75, 2-[1-(3-Chloro-4-hydroxy-5-methoxy-phenyl)-meth-(Z)-ylidene]-6-(2-methylpyridin-4-yl)-imidazo[2,1-b]thiazol-3-one], for which the figures for the IC50 in test [1] and in test [2] were 1.3 nM and 122 nM, respectively.
The matching figures for `COc1cc(/C=c2\sc3nc(-c4ccnc(C)c4)cn3c2=O)cc(F)c1O` [Example 76, 2-[1-(3-Fluoro-4-hydroxy-5-methoxy-phenyl)-meth-(Z)-ylidene]-6-(2-methylpyridin-4-yl)-imidazo[2,1-b]thiazol-3-one]: 6 nM and 260 nM.
The like results for `COc1cc(/C=c2\sc3nc(-c4ccnc(C)c4)cn3c2=O)cc(Br)c1O` [Example 77, 2-[1-(3-Bromo-4-hydroxy-5-methoxy-phenyl)-meth-(Z)-ylidene]-6-(2-methylpyridin-4-yl)-imidazo[2,1-b]thiazol-3-one] were, in that order, 1 nM and 76 nM.
The matching figures for `COc1cc(/C=c2\sc3nc(-c4cccnc4)cn3c2=O)cc(Cl)c1O` [Example 78, 2-[1-(3-Chloro-4-hydroxy-5-methoxy-phenyl)-meth-(Z)-ylidene]-6-(pyridin-3-yl)-imidazo[2,1-b]thiazol-3-one]: 10.4 nM and 700 nM.
On to `COc1cc(/C=c2\sc3nc(-c4ccc(OCCF)cc4)cn3c2=O)cc(Cl)c1O` [Example 79, 2-[1-(3-Chloro-4-hydroxy-5-methoxy-phenyl)-meth-(Z)-ylidene]-6-(4-(2-fluoroethoxyl)phenyl)-imidazo[2,1-b]thiazol-3-one], for which the results for the IC50 in test [1] and in test [2] were 6 nM and 25 nM, respectively.
The matching figures for `C=CCOc1cccc(-c2cn3c(=O)/c(=C/c4cc(Cl)c(O)c(OC)c4)sc3n2)c1` [Example 80, 2-[1-(3-Chloro-4-hydroxy-5-methoxy-phenyl)-meth-(Z)-ylidene]-6-(3-(allyloxy)phenyl)-imidazo[2,1-b]thiazol-3-one]: 6 nM and 20 nM.
The like results for `COc1cc(/C=c2\sc3nc(-c4cc(C)on4)cn3c2=O)cc(Cl)c1O` [Example 84, 2-[1-(3-Chloro-4-hydroxy-5-methoxy-phenyl)-meth-(Z)-ylidene]-6-(5-methyl-isoxazol-3-yl)-imidazo[2,1-b]thiazol-3-one] were, in that order, 18 nM and 990 nM.
Consider `COc1cc(/C=c2\sc3nc(-c4cc(Br)cc(C#N)c4)cn3c2=O)cc(Cl)c1O` [Example 85, 3-Bromo-5-{2-[1-(3-chloro-4-hydroxy-5-methoxy-phenyl)-meth-(Z)-ylidene]-3-oxo-2,3-dihydro-imidazo[2,1-b]thiazol-6-yl}-benzonitrile], for which the IC50 amounted to 0.8 nM in test [1] and 1730 nM in test [2].
For `COc1cc(/C=c2\sc3nc(-c4cccc(C(N)=O)c4)cn3c2=O)cc(Cl)c1O` [Example 86, 3-{2-[1-(3-Chloro-4-hydroxy-5-methoxy-phenyl)-meth-(Z)-ylidene]-3-oxo-2,3-dihydro-imidazo[2,1-b]thiazol-6-yl}-benzamide], the results for the IC50 in test [1] and in test [2] were 1 nM and 1240 nM, respectively.
Regarding `COc1cc(/C=c2\sc3nc(-c4ccc(C#N)cc4)cn3c2=O)cc(Cl)c1O` [Example 87, 4-{2-[1-(3-Chloro-4-hydroxy-5-methoxy-phenyl)-meth-(Z)-ylidene]-3-oxo-2,3-dihydro-imidazo[2,1-b]thiazol-6-yl}-benzonitrile], the IC50 in test [1] worked out at 0.3 nM; in test [2], 6 nM.
For `COc1cc(/C=c2\sc3nc(-c4ccc(OC(F)F)cc4)cn3c2=O)cc(Cl)c1O` [Example 88, 2-[1-(3-Chloro-4-hydroxy-5-methoxy-phenyl)-meth-(Z)-ylidene]-6-(4-(difluoromethoxy)phenyl)-imidazo[2,1-b]thiazol-3-one], the IC50 amounted to 0.6 nM in test [1] and 14 nM in test [2].
Regarding `COc1cc(/C=c2\sc3nc(-c4cccc(N5CCOCC5)c4)cn3c2=O)cc(Cl)c1O` [Example 89, 2-[1-(3-Chloro-4-hydroxy-5-methoxy-phenyl)-meth-(Z)-ylidene]-6-(3-morpholinophenyl)-imidazo[2,1-b]thiazol-3-one], the IC50 was found to be 24 nM in test [1] and 356 nM in test [2].
On to `COc1cc(/C=c2\sc3nc(-c4ccc(N5CCCC5)cc4)cn3c2=O)cc(Cl)c1O` [Example 90, 2-[1-(3-Chloro-4-hydroxy-5-methoxy-phenyl)-meth-(Z)-ylidene]-6-(4-(pyrrolidin-1-yl)phenyl)-imidazo[2,1-b]thiazol-3-one], for which the figures for the IC50 in test [1] and in test [2] were 37 nM and 16 nM, respectively.
The like results for `CCN(CC)c1ccc(-c2cn3c(=O)/c(=C/c4cc(Cl)c(O)c(OC)c4)sc3n2)cc1` [Example 91, 2-[1-(3-Chloro-4-hydroxy-5-methoxy-phenyl)-meth-(Z)-ylidene]-6-(4-(diethylamino)phenyl)-imidazo[2,1-b]thiazol-3-one] were, in that order, 20 nM and 184 nM.
For the compound `COc1cc(/C=c2\sc3nc(-c4ccc(N5CCOCC5)cc4)cn3c2=O)cc(Cl)c1O` [Example 92, 2-[1-(3-Chloro-4-hydroxy-5-methoxy-phenyl)-meth-(Z)-ylidene]-6-(4-morpholinophenyl)-imidazo[2,1-b]thiazol-3-one], the IC50 in test [1] turned out to be 39 nM; in test [2], 482 nM.
As to `COc1cc(/C=c2\sc3nc(-c4ccc(N(C)C)cc4)cn3c2=O)cc(Cl)c1O` [Example 93, 2-[1-(3-Chloro-4-hydroxy-5-methoxy-phenyl)-meth-(Z)-ylidene]-6-(4-(dimethylamino)phenyl)-imidazo[2,1-b]thiazol-3-one], the IC50 in test [1] is 30 nM; in test [2] it was 29 nM.
The like results for `COc1cc(/C=c2\sc3nc(-c4cccc(N5CCCC5=O)c4)cn3c2=O)cc(Cl)c1O` [Example 94, 2-[1-(3-Chloro-4-hydroxy-5-methoxy-phenyl)-meth-(Z)-ylidene]-6-[3-(2-oxo-pyrrolidin-1-yl)-phenyl]-imidazo[2,1-b]thiazol-3-one] were, in that order, 42 nM and 3890 nM.
The like results for `COc1cc(/C=c2\sc3nc(-c4cccc(OCCOCCOCCF)c4)cn3c2=O)cc(Cl)c1O` [Example 95, 2-[1-(3-Chloro-4-hydroxy-5-methoxy-phenyl)-meth-(Z)-ylidene]-6-(3-{2-[2-(2-fluoro-ethoxy)-ethoxy]-ethoxy}-phenyl)-imidazo[2,1-b]thiazol-3-one] were, in that order, 28 nM and 2150 nM.
The like results for `COc1cc(/C=c2\sc3nc(-c4ccc(C(=O)O)cc4)cn3c2=O)cc(Cl)c1O` [Example 98, 4-{2-[1-(3-Chloro-4-hydroxy-5-methoxy-phenyl)-meth-(Z)-ylidene]-3-oxo-2,3-dihydro-imidazo[2,1-b]thiazol-6-yl}-benzoic acid] were, in that order, 21 nM and 1850 nM.
On to `COc1ccc(-c2cn3c(=O)/c(=C/c4cc(Cl)c(O)c(OC)c4)sc3n2)cc1OC` [Example 99, 2-[1-(3-Chloro-4-hydroxy-5-methoxy-phenyl)-meth-(Z)-ylidene]-6-(3,4-dimethoxy-phenyl)-imidazo[2,1-b]thiazol-3-one], for which the IC50 in test [1] was 14 nM; in test [2] it was 325 nM.
The like results for `COc1cc(/C=c2\sc3nc(-c4ccc5c(c4)OCCO5)cn3c2=O)cc(Cl)c1O` [Example 100, 2-[1-(3-Chloro-4-hydroxy-5-methoxy-phenyl)-meth-(Z)-ylidene]-6-(2,3-dihydro-benzo[1,4]dioxin-6-yl)-imidazo[2,1-b]thiazol-3-one] were, in that order, 9 nM and 1060 nM.
For `COc1cc(/C=c2\sc3nc(-c4ccc(C(N)=O)cc4)cn3c2=O)cc(Cl)c1O` [Example 101, 4-{2-[1-(3-Chloro-4-hydroxy-5-methoxy-phenyl)-meth-(Z)-ylidene]-3-oxo-2,3-dihydro-imidazo[2,1-b]thiazol-6-yl}-benzamide], the figures for the IC50 in test [1] and in test [2] were 2 nM and 792 nM, respectively.
Consider `COc1cc(/C=c2\sc3nc(-c4ccc5c(c4)CC(=O)N5)cn3c2=O)cc(Cl)c1O` [Example 102, 5-{2-[1-(3-Chloro-4-hydroxy-5-methoxy-phenyl)-meth-(Z)-ylidene]-3-oxo-2,3-dihydro-imidazo[2,1-b]thiazol-6-yl}-1,3-dihydro-indol-2-one], for which the results for the IC50 in test [1] and in test [2] were 12 nM and 226 nM, respectively.
`COc1cc(/C=c2\sc3nc(-c4ccc(NC(C)=O)cc4)cn3c2=O)cc(Cl)c1O` [Example 103, N-(4-{2-[1-(3-Chloro-4-hydroxy-5-methoxy-phenyl)-meth-(Z)-ylidene]-3-oxo-2,3-dihydro-imidazo[2,1-b]thiazol-6-yl}-phenyl)-acetamide]: the IC50 in test [1] turned out to be 24 nM; in test [2] it was 1160 nM.
The like results for `COc1cc(/C=c2\sc3nc(-c4cccc(C(=O)O)c4)cn3c2=O)cc(Cl)c1O` [Example 104, 3-{2-[1-(3-Chloro-4-hydroxy-5-methoxy-phenyl)-meth-(Z)-ylidene]-3-oxo-2,3-dihydro-imidazo[2,1-b]thiazol-6-yl}-benzoic acid] were, in that order, 19 nM and over 10000 nM.
